Earlier results in PubChem BioAssay AID1259409 (Chemical Carcinogenesis Research Information System (CCRIS), 2018).

System: rodent chemically induced tumor inhibition, incidence and multiplicity
Assay: CCRIS tumor inhibitor studies
Conditions: Promoter: NONE USED

Cc1cc(=O)cc(C)o1
tumour outcome (control, treated, inhibition, significance) (Carcinogen: BENZO[A]PYRENE, 50-32-8, Dose [Inhibitor]: 0.034 MMOL/G IN DIET FOR 5 WK (STUDY DURATION: 21 WK), Route [Inhibitor]: ORAL, Species: MOUSE, Strain/Sex: ICR/FEMALE, Target Tissue: Type of Lesion: FORESTOMACH: TUMOR, Dose [Carcinogen]: 1 MG IN 0.2 ML CORN OIL 2/WK FOR 4 WK STARTING ON D 8 OF EXPERIMENT): 94%, 100%, -6%, not significant

C[C@]12C[C@H](O)[C@H]3[C@@H](CCC4=CC(=O)CC[C@@]43C)[C@@H]1CC[C@@H]2C(=O)CO
tumour outcome (control, treated, inhibition, significance) (Dose [Inhibitor]: 0, 1.5 MG 2/WK FOR 10 WK (STUDY DURATION: 65 WK), Route [Inhibitor]: INTRAMUSCULAR, Species: RAT, Strain/Sex: F344/MALE, Target Tissue: Type of Lesion: LIVER: HEPATOCELLULAR CARCINOMA, Dose [Carcinogen]: 100 UG 2/WK FOR 10 WK): 12/13 (92%), 12/23 (52%), 43%, p<0.02
